# According to PubChem BioAssay (NCI):
# Values joined by “and” are separate entries in the source; they are usually repeats but may differ in a detail not shown here. Identical values can stand only once.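 Protocol summary: plate cells (96-well), add compound at 5 concentrations, incubate 48 h, interpolate endpoints linearly. Here, GI50 denotes the concentration required for 50% inhibition of growth. The concentration for full growth arrest is given as TGI.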
# What was measured:
# Test in all cases: NCI tumour cell line growth inhibition, 48 h
# SF-539 CNS = tested on: SF-539 CNS
# MALME-3M melanoma = tested on: MALME-3M melanoma
# EKVX NSCLC = tested on: EKVX NSCLC
# LOX IMVI melanoma = tested on: LOX IMVI melanoma
# ACHN renal = tested on: ACHN renal
# SF-295 CNS = tested on: SF-295 CNS
# OVCAR-3 ovarian = tested on: OVCAR-3 ovarian
# M14 melanoma = tested on: M14 melanoma
# RPMI-8226 leukemia = tested on: RPMI-8226 leukemia
# HCT-116 colon = tested on: HCT-116 colon
# MDA-MB-231 breast = tested on: MDA-MB-231 breast
# HL-60(TB) leukemia = tested on: HL-60(TB) leukemia
# SNB-19 CNS = tested on: SNB-19 CNS
# SF-268 CNS = tested on: SF-268 CNS
# COLO 205 colon = tested on: COLO 205 colon
# SK-OV-3 ovarian = tested on: SK-OV-3 ovarian
# IGROV1 ovarian = tested on: IGROV1 ovarian
# BT-549 breast = tested on: BT-549 breast
# PC-3 prostate = tested on: PC-3 prostate
# HS 578T breast = tested on: HS 578T breast
# HOP-62 NSCLC = tested on: HOP-62 NSCLC
# NCI-H23 lung = tested on: NCI-H23 lung
# RXF 393 renal = tested on: RXF 393 renal
# DU-145 prostate = tested on: DU-145 prostate
# MDA-MB-435 = tested on: MDA-MB-435
# CAKI-1 renal = tested on: CAKI-1 renal
# T-47D breast = tested on: T-47D breast
# UACC-257 melanoma = tested on: UACC-257 melanoma
# NCI/ADR-RES ovarian = tested on: NCI/ADR-RES ovarian
# HCC-2998 colon = tested on: HCC-2998 colon
# TK-10 renal = tested on: TK-10 renal
# 786-0 renal = tested on: 786-0 renal
# HOP-92 NSCLC = tested on: HOP-92 NSCLC
# SK-MEL-28 melanoma = tested on: SK-MEL-28 melanoma
# SNB-75 CNS = tested on: SNB-75 CNS
# A549 NSCLC = tested on: A549 NSCLC
# SK-MEL-5 melanoma = tested on: SK-MEL-5 melanoma
# U251 CNS = tested on: U251 CNS
# A498 renal = tested on: A498 renal
# NCI-H460 lung = tested on: NCI-H460 lung
# MOLT-4 leukemia = tested on: MOLT-4 leukemia
# KM12 colon = tested on: KM12 colon
# UO-31 renal = tested on: UO-31 renal
# HCT-15 colon = tested on: HCT-15 colon
# OVCAR-8 ovarian = tested on: OVCAR-8 ovarian
# SN12C renal = tested on: SN12C renal
# NCI-H226 lung = tested on: NCI-H226 lung
# MCF7 breast = tested on: MCF7 breast
# SW-620 colon = tested on: SW-620 colon
# HT29 colon = tested on: HT29 colon
# SK-MEL-2 melanoma = tested on: SK-MEL-2 melanoma
# K-562 leukemia = tested on: K-562 leukemia
# CCRF-CEM leukemia = tested on: CCRF-CEM leukemia
# NCI-H522 lung = tested on: NCI-H522 lung
# OVCAR-5 ovarian = tested on: OVCAR-5 ovarian
# SR leukemia = tested on: SR leukemia
# OVCAR-4 ovarian = tested on: OVCAR-4 ovarian
# UACC-62 melanoma = tested on: UACC-62 melanoma
smiles,measurement,setting,value
COc1cc(C2C3=C(COC3=O)N(CCO)c3cc4c(cc32)OCO4)cc(OC)c1OC (stereo not given),GI50,SF-539 CNS,323 nM and 434 nM
same,TGI,SF-539 CNS,947 nM and 3010 nM
same,GI50,MALME-3M melanoma,532 nM and 745 nM
same,TGI,MALME-3M melanoma,12500 nM and > 16800 nM
same,GI50,EKVX NSCLC,6650 nM and 1030 nM
same,TGI,EKVX NSCLC,12500 nM and > 16800 nM
same,GI50,LOX IMVI melanoma,976 nM
same,TGI,LOX IMVI melanoma,> 16800 nM
same,GI50,ACHN renal,1090 nM and 925 nM
same,TGI,ACHN renal,12500 nM and > 16800 nM
same,GI50,SF-295 CNS,537 nM and 235 nM
same,GI50,OVCAR-3 ovarian,244 nM and 319 nM
same,TGI,OVCAR-3 ovarian,542 nM and 668 nM
same,GI50,M14 melanoma,311 nM and 363 nM
same,TGI,M14 melanoma,926 nM and 1380 nM
same,GI50,RPMI-8226 leukemia,521 nM and 715 nM
same,TGI,RPMI-8226 leukemia,12500 nM and > 16800 nM
same,GI50,HCT-116 colon,468 nM and 524 nM
same,TGI,HCT-116 colon,12500 nM and 13800 nM
same,GI50,MDA-MB-231 breast,971 nM and 1600 nM
same,TGI,MDA-MB-231 breast,12500 nM and > 16800 nM
same,GI50,HL-60(TB) leukemia,343 nM and 629 nM
same,GI50,SNB-19 CNS,408 nM and 720 nM
same,TGI,SNB-19 CNS,6650 nM and > 16800 nM
same,GI50,SF-268 CNS,321 nM and 872 nM
same,TGI,SF-268 CNS,2050 nM and > 16800 nM
same,GI50,COLO 205 colon,360 nM and 332 nM
same,TGI,COLO 205 colon,1020 nM and 765 nM
same,GI50,SK-OV-3 ovarian,456 nM and 491 nM
same,TGI,SK-OV-3 ovarian,7710 nM and > 16800 nM
same,GI50,IGROV1 ovarian,328 nM and 625 nM
same,TGI,IGROV1 ovarian,1970 nM and 6300 nM
same,GI50,BT-549 breast,4330 nM and 834 nM
same,TGI,BT-549 breast,12500 nM and 9330 nM
same,GI50,PC-3 prostate,611 nM and 612 nM
same,TGI,PC-3 prostate,12500 nM and > 16800 nM
same,GI50,HS 578T breast,276 nM and 268 nM
same,GI50,HOP-62 NSCLC,779 nM and 738 nM
same,TGI,HOP-62 NSCLC,12500 nM and > 16800 nM
same,GI50,NCI-H23 lung,412 nM and 574 nM
same,TGI,NCI-H23 lung,2460 nM and > 16800 nM
same,GI50,RXF 393 renal,176 nM and 337 nM
same,TGI,RXF 393 renal,501 nM and 931 nM
same,GI50,DU-145 prostate,342 nM and 550 nM
same,TGI,DU-145 prostate,1020 nM and 2590 nM
same,GI50,MDA-MB-435,175 nM and 151 nM
same,TGI,MDA-MB-435,592 nM and 616 nM
same,GI50,CAKI-1 renal,8660 nM and 2390 nM
same,TGI,CAKI-1 renal,12500 nM and > 16800 nM
same,GI50,T-47D breast,474 nM
same,TGI,T-47D breast,12500 nM
same,TGI,UACC-257 melanoma,12500 nM and > 16800 nM
same,GI50,NCI/ADR-RES ovarian,3920 nM and 14800 nM
same,TGI,NCI/ADR-RES ovarian,12500 nM and > 16800 nM
same,GI50,HCC-2998 colon,697 nM and 702 nM
same,TGI,HCC-2998 colon,6210 nM and 5110 nM
same,GI50,TK-10 renal,1240 nM and 2730 nM
same,TGI,TK-10 renal,12500 nM and > 16800 nM
same,GI50,786-0 renal,474 nM and 754 nM
same,TGI,786-0 renal,12500 nM and > 16800 nM
same,GI50,HOP-92 NSCLC,6020 nM and 5990 nM
same,TGI,HOP-92 NSCLC,12500 nM and > 16800 nM
same,GI50,SK-MEL-28 melanoma,706 nM and 1080 nM
same,TGI,SK-MEL-28 melanoma,12500 nM and > 16800 nM
same,GI50,SNB-75 CNS,514 nM and 251 nM
same,TGI,SNB-75 CNS,12500 nM and > 16800 nM
same,GI50,A549 NSCLC,595 nM and 1060 nM
same,TGI,A549 NSCLC,12500 nM and > 16800 nM
same,GI50,SK-MEL-5 melanoma,359 nM and 561 nM
same,TGI,SK-MEL-5 melanoma,2460 nM and 4350 nM
same,GI50,U251 CNS,500 nM and 631 nM
same,TGI,U251 CNS,12500 nM and > 16800 nM
same,GI50,A498 renal,257 nM and 407 nM
same,TGI,A498 renal,1070 nM and 8820 nM
same,GI50,NCI-H460 lung,438 nM and 542 nM
same,TGI,NCI-H460 lung,12500 nM and 3400 nM
same,GI50,MOLT-4 leukemia,675 nM and 4390 nM
same,TGI,MOLT-4 leukemia,12500 nM and > 16800 nM
same,GI50,KM12 colon,334 nM and 462 nM
same,TGI,KM12 colon,2310 nM and 8860 nM
same,TGI,UO-31 renal,12500 nM and > 16800 nM
same,GI50,HCT-15 colon,1520 nM and 1130 nM
same,TGI,HCT-15 colon,12500 nM and > 16800 nM
same,GI50,OVCAR-8 ovarian,427 nM and 770 nM
same,TGI,OVCAR-8 ovarian,12500 nM and > 16800 nM
same,GI50,SN12C renal,1250 nM and 1130 nM
same,TGI,SN12C renal,12500 nM and > 16800 nM
same,GI50,NCI-H226 lung,> 12500 nM and 2940 nM
same,TGI,NCI-H226 lung,> 16800 nM
same,GI50,MCF7 breast,409 nM and 426 nM
same,TGI,MCF7 breast,12500 nM and > 16800 nM
same,GI50,SW-620 colon,439 nM and 697 nM
same,TGI,SW-620 colon,12500 nM and > 16800 nM
same,GI50,HT29 colon,403 nM and 585 nM
same,TGI,HT29 colon,1940 nM and 2030 nM
same,GI50,SK-MEL-2 melanoma,298 nM and 979 nM
same,GI50,K-562 leukemia,406 nM and 489 nM
same,TGI,K-562 leukemia,12500 nM and > 16800 nM
same,GI50,CCRF-CEM leukemia,473 nM and 802 nM
same,TGI,CCRF-CEM leukemia,12500 nM and > 16800 nM
same,GI50,NCI-H522 lung,173 nM and 260 nM
same,TGI,NCI-H522 lung,666 nM and 1250 nM
same,GI50,OVCAR-5 ovarian,1660 nM and 500 nM
same,TGI,OVCAR-5 ovarian,12500 nM and > 16800 nM
same,GI50,SR leukemia,323 nM
same,TGI,SR leukemia,> 16800 nM
same,GI50,OVCAR-4 ovarian,706 nM and 987 nM
same,TGI,OVCAR-4 ovarian,12500 nM and > 16800 nM
same,GI50,UACC-62 melanoma,1000 nM and 565 nM
same,TGI,UACC-62 melanoma,12500 nM and > 16800 nM
